# Laboratory results published in patent US20210308133A1, “METHODS AND COMPOSITIONS FOR INHIBITING MUSCLE WASTING” (THE BOARD OF REGENTS OF THE UNIVERSITY OF TEXAS SYSTEM, priority 2020, published 2021).
# What was measured:
# [1] = tested on: p38α MAPK-mediated myogenic differentiation of C2C12 myoblasts; experiment: myogenic differentiation of C2C12 myoblasts (MHC expression); type: cell-based, Murine; settings: 96 hours differentiation
# Text: (§1) Western blotting. All procedures were adhered to our previous publication ^12. The following primary antibodies were used: anti-p300 (1:500, sc584, Santa Cruz), anti-C/EBPβ (1:1000, MA1-827, Thermo Fisher), anti-pT188-C/EBPβ (1:1000, 3084, Cell Signaling Technology), anti-TLR4 (1:500, sc16240, Santa Cruz), anti-p38α MAPK (1:500, sc271120, Santa Cruz), anti-p38s MAPK (1:500, 2339, Cell Signaling Technology), anti-p38 MAPK (1:1000, 9212, Cell Signaling Technology), anti-p-p38 MAPK (1:1000, 4511, Cell Signaling Technology), anti-MAFbx (1:1000, AP2041, ECM Bioscience), anti-UBR2 (1:500, NBP1-45243, Novus Biologicals), anti-LC3 (1:2000, NB100-2220, Novus Biologicals) and anti-MHC (1:1000, MAB4470, R&D Systems). Antibody against acetylated Lys-39 of C/EBPβ (1:2000) was generated as previously described ^12. […] (SEQ ID NO: 1). Data were normalized to α-Tubulin (Development Studies Hybridoma Bank at the University of Iowa, Iowa City, Iowa).
# LLC tumor-bearing mice [2] = settings: as reported previously (ref 8); cited from earlier work
# [3] = humans, 24 hours after first PO administration of 50 mg; cited from earlier work
# [4] = tested on: p38β MAPK-mediated activation of p300 and C/EBPβ; experiment: LCM-induced p300 activation (Ser-12 phosphorylation) and C/EBPβ acetylation in C2C12 myotubes, Western blotting; type: cell-based, Murine; settings: LCM 2 h, concentration-dependent
# Protocol: Cell cultures. Murine C2C12 myoblasts (American Type Culture Collection, ATCC) and human skeletal myoblasts (GIBCO®) were grown in growth medium (DMEM supplemented with 10% fetal bovine serum) at 37° C. under 5% CO2. Myoblast differentiation was induced at 85% confluence with differentiation medium (DMEM supplemented with 4% heat-inactivated horse serum in) for 96 hrs. Preconditioned medium from 48-hour cultures of Lewis lung carcinoma cells (National Cancer Institute, Frederick, Md.), H1299 human lung carcinoma cells (ATCC) or KPC cells (a gift from Dr. Elizabeth Jaffee of Johns Hopkins University) 14 were collected and centrifuged (1000×g, 5 min). Conditioned medium of non-tumorigenic NL20 cells (human lung epithelial cells, ATCC) was used as control. The supernatant was used to treat myotubes (25% final volume in fresh medium) when indicated and replaced every 24 h. […] All cell lines were tested negative for mycoplasma contamination. Cell culture-based experiments were replicated independently for 3 times.
# Western blotting. All procedures were adhered to our previous publication ^12. […]
# UBR2 = experiment: LCM-induced UBR2 upregulation in C2C12 myotubes, Western blotting; type: cell-based, Murine; settings: LCM 8 hours, concentration-dependent
# Text: as §1
# LLC tumor-bearing mice [5] = experiment: muscle wasting in LLC tumor-bearing mice; type: in vivo; settings: 0.5 mg/kg/day i.p. from day 7 for 2 weeks
# Protocol: Mice were euthanized on day 21. The tumor was isolated and weighed, and then the net body weight was measured. Muscle samples were collected immediately for analyses of muscle wasting. […] Catabolic markers in TA muscle lysates were analyzed by Western blotting. […] Grip strength was measured on the day of euthanasia. […] H&E-stained TA cross sections were analyzed for the myofiber cross-sectional area. * signifies a statistically significant difference (p<0.05) determined by one-way ANOVA (FIGS. 5A-E) or Chi-square test (FIG. 5F).
# Animal use. Experimental protocols were pre-approved by the institutional Animal Welfare Committee at the University of Texas Health Science Center at Houston. LLC cells (1×10^6 in […]) were injected subcutaneously into the flanks of 8-week-old male C57B16 mice, TLR4^−/− mice in the C57BL/6 background ^17, or p38β MAPK muscle-specific knockout and p38β MAPK-floxed mice in the C57BL/6 background ^18. […] DMSO was injected accordingly as vehicle control. Plasmid encoding the p300-S12A mutant was transfected into TA muscle by electroporation on day 7 and day 14 following LLC implantation as described previously ^12. The contralateral TA was transfected with an empty vector as control. […] On day 21, mice were euthanized, and muscle samples were harvested for further analyses. For survival study, orthotopic implantation of KPC cells was performed based on the procedures by Zhu et al. ^19. Briefly, a longitudinal incision was made to open the abdominal cavity for pancreas exposure. Then, 2×10^6 KPC cells suspended in 20 μl PBS were injected to the tail of pancreas.
# as §1
# Fluorescence microscopy and histology study. C2C12 myotubes were stained with anti-MHC antibody (1:1000, MAB4470, R&D Systems) and anti-mouse Alexa Fluor® Plus 488 secondary antibody (1:200, A32723, ThermoFisher), and examined using a Zeiss Axioskop 40 microscope and a Zeiss Axiocam MRM camera system controlled by Axiovision Release 4.6 imaging software. Acquired images were edited using the Photoshop software. Myotube diameter was measured in MHC-stained myotubes as previously described ^12. Cross-sectional area of H&E-stained muscle sections was quantified by using the ImageJ software (NIH). Approximately 100 myofibers from each of 5 random views were quantified.
# p38β MAPK = p38β MAPK (Homo sapiens, UniProt Q15759); settings: p38β MAPK vs p38α MAPK; cited from earlier work
# C2C12 myotubes = experiment: LCM-induced loss of MHC and myotube mass in C2C12 myotubes; type: cell-based, Murine; settings: 500 nM, LCM 72 hrs
# Text: as §1
# Fluorescence microscopy and histology study. […] Myotube diameter was measured in MHC-stained myotubes as previously described ^12. Cross-sectional area of H&E-stained muscle sections was quantified by using the ImageJ software (NIH). Approximately 100 myofibers from each of 5 random views were quantified.
# p38 MAPK = p38 MAPK activation and catabolic response in primary human myotubes treated with H1299 cell-conditioned medium; type: cell-based; settings: 500 nM
# Text: as §1
# KPC tumor-bearing mice = experiment: survival and muscle wasting of mice bearing orthotopic KPC pancreatic tumor; type: in vivo
# Protocol: Survival of KPC tumor-bearing mice was recorded and analyzed using the Kaplan-Meier survival curve. […] Forelimb grip strength of the mice was monitored over the course of the survival study. Data were analyzed by 2-way ANOVA. * signifies a statistically significant difference (p<0.05).
# At the end point, both of DMSO or nilotinib-treated KPC tumor-bearing mice were euthanized. Tumors were isolated and weighted (left panel). Net body weight was measured (right panel).
# Animal use. Experimental protocols were pre-approved by the institutional Animal Welfare Committee at the University of Texas Health Science Center at Houston. LLC cells (1×10^6 in […]) were injected subcutaneously into the flanks of 8-week-old male C57B16 mice, TLR4^−/− mice in the C57BL/6 background ^17, or p38β MAPK muscle-specific knockout and p38β MAPK-floxed mice in the C57BL/6 background ^18. […] DMSO was injected accordingly as vehicle control. Plasmid encoding the p300-S12A mutant was transfected into TA muscle by electroporation on day 7 and day 14 following LLC implantation as described previously ^12. The contralateral TA was transfected with an empty vector as control. Development of cachexia was monitored by body weight and forelimb grip strength test, and usually took place within 21 days after implantation. On day 21, mice were euthanized, and muscle samples were harvested for further analyses. For survival study, orthotopic implantation of KPC cells was performed based on the procedures by Zhu et al. ^19. Briefly, a longitudinal incision was made to open the abdominal cavity for pancreas exposure. Then, 2×10^6 KPC cells suspended in 20 μl PBS were injected to the tail of pancreas.
# Chain of p38β MAPK (Q15759 whole entry): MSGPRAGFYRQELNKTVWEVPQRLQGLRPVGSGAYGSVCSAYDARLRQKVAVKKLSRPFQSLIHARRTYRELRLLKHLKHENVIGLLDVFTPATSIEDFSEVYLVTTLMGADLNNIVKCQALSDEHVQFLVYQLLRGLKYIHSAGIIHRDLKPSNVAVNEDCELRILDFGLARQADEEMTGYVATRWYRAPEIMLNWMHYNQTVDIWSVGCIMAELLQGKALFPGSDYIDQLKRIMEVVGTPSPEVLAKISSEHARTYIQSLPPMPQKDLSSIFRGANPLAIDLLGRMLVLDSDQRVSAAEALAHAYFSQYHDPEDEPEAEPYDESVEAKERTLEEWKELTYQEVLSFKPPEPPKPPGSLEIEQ
compound,measurement,setting,value
Oc1ccc(-c2nc(-c3ccncc3)c(-c3ccc(F)cc3)[nH]2)cc1 [SB202190],onset of myoblast differentiation (MHC expression at 24 and 48 hours),[1]; 10 μM,delayed
same,LLC tumor-induced muscle wasting in mice,LLC tumor-bearing mice [2],attenuates
Cc1cn(-c2cc(NC(=O)c3ccc(C)c(Nc4nccc(-c5cccnc5)n4)c3)cc(C(F)(F)F)c2)cn1 [nilotinib],serum concentration,[3],approximately 400 ng/ml
same,MHC expression over the course of myoblast differentiation,[1]; 500 nM,did not alter MHC expression
same,C/EBPβ acetylation on Lys-39,[4],inhibited
same,LCM-induced upregulation of UBR2,UBR2,inhibited
same,LLC tumor growth,LLC tumor-bearing mice [5],without affecting tumor growth
same,activation of p300 (Ser-12 phosphorylation and Lys-39 acetylation of C/EBPβ) in TA muscle,LLC tumor-bearing mice [5],abolished
same,increase in autophagosome formation (LC3-II levels),LLC tumor-bearing mice [5],blockade
same,loss of MHC in muscle,LLC tumor-bearing mice [5],blockade
same,loss of TA and EDL weight,LLC tumor-bearing mice [5],attenuated
same,loss of body weight,LLC tumor-bearing mice [5],protected against the loss of body weight
same,loss of muscle strength (grip strength),LLC tumor-bearing mice [5],attenuated
same,myofiber cross-sectional area in TA,LLC tumor-bearing mice [5],preserved myofiber mass
same,upregulation of E3 ligases UBR2 and atroginl/MAFbx in TA muscle,LLC tumor-bearing mice [5],blockade
same,binding affinity for p38β MAPK higher than for p38α MAPK,p38β MAPK,3 fold
same,LCM-induced loss of myosin heavy chain (MHC),C2C12 myotubes,resistant
same,LCM-induced loss of myotube mass (myotube diameters),C2C12 myotubes,resistant
same,C/EBPβ phosphorylation on Thr-188,p38 MAPK; 1 h,blockade
same,p38 MAPK activation by H1299 conditioned medium,p38 MAPK; 1 h,abrogated
same,upregulation of E3 ligase UBR2,p38 MAPK; 8 h,blockade
same,median survival,KPC tumor-bearing mice; 0.5 mg/kg/day i.p. from day 5 until end point,31 days
same,tumor volume at the end point versus DMSO,"KPC tumor-bearing mice; 0.5 mg/kg/day i.p., at end point",without significant difference in tumor volume
same,loss of muscle function measured as grip strength,"KPC tumor-bearing mice; 0.5 mg/kg/day i.p., over the course of the survival study",attenuated
